Data: patent publication US11071697B2, “Metal-carbon structure hybrid formulation for dental use in the treatment of dental hypersensitivity, demineralization and cavities” (UNIVERSIDAD DE CHILE, priority 2016, dated 2021)

Tests used:
(TPH1) human cells = test: Cell viability by mitochondrial activity assay (MTT); format: cell-based; conditions: FIG. 2
Description: FIG. 2. Cell viability assay using mitochondrial activity technique (MTT). THP1 cell type.

[1] = tested on: main bacterial species associated with dental caries; test: In vitro antibacterial capacity, inhibition halos; format: cell-based; conditions: composition: 25,000 ppm aqueous (Cu(NH3)6)F2 ammonia with 0.002 g/ml graphite oxide; FIG. 1
Description: FIG. 1. […] The dark zone corresponds to the area where there is no bacterial growth. […] A) Chlorhexidine, B) Silver Diamine Fluorine, C) Silane Fluorine, D) Composition of the Invention. […] These tests have been performed on the main bacterial species associated with dental caries.

[2] = Solubility of the salt as ammonia metal complex; format: physicochemical; conditions: impossible in aqueous solution
Description: In FIG. 6 it is observed the absorption spectrum UV/Visible which confirms this structure.
The shift toward smaller wavelengths gives an account of the formation of ammonia metal complex which is observed in an increase of the solubility of the salt in this solution which allows to reach fluoride concentrations close to 30,000 ppm, which is impossible in aqueous solution.

Row | SMILES | toxicity (in words) ((TPH1) human cells) | areas of inhibition halos [1] | fluoride concentrations reached in ammonia solution [2]
1 | [H]/N=C(\N/C(=N/[H])NCCCCCCNC(=N)NC(=N)Nc1ccc(Cl)cc1)Nc1ccc(Cl)cc1 [chlorhexidine] | a degree of toxicity | 659 mm^2 | 
2 | N.N.N.N.N.N.[Cu+2].[F-].[F-] [Cu(NH3)6F2] |  |  | ~30,000 ppm
